# According to US20260217692A1 (Ascentage Pharma (Suzhou) Co., Ltd., priority 2023, published 2026):
# “And” between values parts separate entries of the source, which are not always exact repeats. Identical values can stand only once. Counter-ions that a name gives are not always drawn.
# Tests used:
# Format in all cases: physicochemical
# [1] = Stability of crystal forms under stability test conditions (appearance, XRPD, HPLC)
# Procedure: The samples were placed under the stability conditions shown in the following table, sampling was performed at the corresponding time points, and the samples were subjected to appearance and XRPD tests. […] The stability results obtained are recorded in the following table. […] The samples were placed under the stability test conditions shown in the following table, sampling was performed at different time points, and the samples were subjected to the XRPD test. […] The samples were placed in an open state under the stability test conditions of 40° C./75% RH and 90% RH; and the samples were placed in a closed state at 60° C. in a light box (the test samples in the dark were placed in the same manner as the illumination test samples, and the treatment was performed in the dark). Sampling was performed at different time points, and the samples were subjected to the XRPD test. […] The samples were placed under the stability conditions shown in the following table, sampling was performed at the corresponding time points, and the samples were subjected to appearance and XRPD tests. […] The stability results obtained are recorded in the following table.
# [2] = Polymorph screening test, suspension method (crystal form by XRPD after stirring in solvent); conditions: mesylate screening, suspension in Toluene, 3 days
# [3] = Dynamic vapor sorption (DVS) hygroscopicity test; conditions: 25° C. and 80% RH
# From the text: In the present disclosure, the DVS test parameters are set as follows: [table]
# [4] = Polymorph screening test, diffusion method (crystal form by XRPD); conditions: mesylate screening, diffusion at room temperature
# [5] = Polymorph screening test, suspension method (crystal form by XRPD after stirring in solvent); conditions: for Crystal form (XRPD) / Crystal form (XRPD)/85° C.: mesylate screening, 3 days
# Procedure: (or 50° C.) for 3 days in the dark and centrifuged to remove the supernatant; the resulting precipitate was dried under vacuum (25° C., −0.1 MPa); and the resulting solid was collected and subjected to the XRPD test. The results are as follows:
# (or 50° C./80° C.) for 3 days in the dark and centrifuged to remove the supernatant; and the resulting precipitate was dried under vacuum (25° C., −0.1 MPa).
# (or 50° C.) for 3 days in the dark and centrifuged to remove the supernatant; and the resulting precipitate was dried under vacuum (25° C., −0.1 MPa).
# [6] = Solubility of mesylate crystal form A in buffers with different pH values at 37° C.
# Procedure: Suspension states at 15 min, 2 h, 4 h, and 24 h were recorded; and different sample solutions at 15 min, 2 h, 4 h, and 24 h were collected and added to 1.5 mL centrifuge tubes. The suspensions were centrifuged at 12000 rpm for 2 min to obtain supernatants, and the supernatants were subjected to 2-fold dilution to obtain the sample solutions (the solutions were subjected to 10-fold dilution if the samples were dissolved completely). The residual substrates were centrifuged and subjected to the XRPD test.
smiles,measurement,setting,value
Cc1cc(Nc2ncc(Cl)c(Nc3ccccc3S(=O)(=O)C(C)C)n2)c(OC(C)C)cc1C1=CCN(C2CCOCC2)CC1 [one equivalent of mesylate crystal form A],Crystal form result by XRPD test,"[1]; 25° C./60% RH, 1 month",Crystal form A
same,Crystal form result by XRPD test,"[1]; 25° C./60% RH, 2 months",Crystal form A
same,Crystal form result by XRPD test,"[1]; 25° C./60% RH, 3 months",Crystal form A
same,Crystal form result by XRPD test,"[1]; 25° C./60% RH, 6 months",Crystal form A
same,Crystal form result by XRPD test,"[1]; 25° C./60% RH, 5 days",Crystal form A
same,Crystal form result by XRPD test,"[1]; 25° C./60% RH, 10 days",Crystal form A
same,Crystal form result by XRPD test,"[1]; 40° C./75% RH, 1 month",Crystal form A
same,Crystal form result by XRPD test,"[1]; 40° C./75% RH, 2 months",Crystal form A
same,Crystal form result by XRPD test,"[1]; 40° C./75% RH, 3 months",Crystal form A
same,Crystal form result by XRPD test,"[1]; 40° C./75% RH, 6 months",Crystal form A
same,Crystal form result by XRPD test,"[1]; 40° C./75% RH, 5 days",Crystal form A
same,Crystal form result by XRPD test,"[1]; 40° C./75% RH, 10 days",Crystal form A
same,Crystal form result by XRPD test,"[1]; 60° C., 1 month",Crystal form A
same,Crystal form result by XRPD test,"[1]; 60° C., 2 months",Crystal form A
same,Crystal form result by XRPD test,"[1]; 60° C., 3 months",Crystal form A
same,Crystal form result by XRPD test,"[1]; 60° C., 6 months",Crystal form A
same,Crystal form result by XRPD test,"[1]; 60° C., 5 days",Crystal form A
same,Crystal form result by XRPD test,"[1]; 60° C., 10 days",Crystal form A
same,Crystal form result by XRPD test,"[1]; 90% RH, 1 month",Crystal form A
same,Crystal form result by XRPD test,"[1]; 90% RH, 2 months",Crystal form A
same,Crystal form result by XRPD test,"[1]; 90% RH, 3 months",Crystal form A
same,Crystal form result by XRPD test,"[1]; 90% RH, 5 days",Crystal form A
same,Crystal form result by XRPD test,"[1]; 90% RH, 10 days",Crystal form A
same,Crystal form (XRPD)/85° C.,[2],Crystal form A
same,hygroscopic weight gain (DVS curve),[3],0.31±0.005% and 0.31%
same,Crystal form (XRPD),"[4]; good solvent Dichloromethane, poor solvent Acetone",Crystal form A
same,Crystal form (XRPD),"[4]; good solvent Dichloromethane, poor solvent Acetonitrile",Crystal forms A + B
same,Crystal form (XRPD),"[4]; good solvent Dichloromethane, poor solvent Ethanol",Crystal form A
same,Crystal form (XRPD),"[4]; good solvent Dichloromethane, poor solvent Ethyl acetate",Crystal forms A + B
same,Crystal form (XRPD),"[4]; good solvent Dichloromethane, poor solvent Tetrahydrofuran",Crystal forms A + B
same,Crystal form (XRPD),"[4]; good solvent Dimethyl sulfoxide, poor solvent Acetone",Clear solution
same,Crystal form (XRPD),"[4]; good solvent Dimethyl sulfoxide, poor solvent Acetonitrile",Clear solution
same,Crystal form (XRPD),"[4]; good solvent Dimethyl sulfoxide, poor solvent Ethanol",Clear solution
same,Crystal form (XRPD),"[4]; good solvent Dimethyl sulfoxide, poor solvent Ethyl acetate",Clear solution
same,Crystal form (XRPD),"[4]; good solvent Dimethyl sulfoxide, poor solvent Tetrahydrofuran",Clear solution
same,Crystal form (XRPD),"[4]; good solvent Methanol, poor solvent Acetone",Clear solution
same,Crystal form (XRPD),"[4]; good solvent Methanol, poor solvent Acetonitrile",Clear solution
same,Crystal form (XRPD),"[4]; good solvent Methanol, poor solvent Ethyl acetate",Clear solution
same,Crystal form (XRPD),"[4]; good solvent Methanol, poor solvent Tetrahydrofuran",Clear solution
same,Crystal form (XRPD),"[4]; good solvent N,N-Dimethylformamide, poor solvent Acetone",Clear solution
same,Crystal form (XRPD),"[4]; good solvent N,N-Dimethylformamide, poor solvent Acetonitrile",Clear solution
same,Crystal form (XRPD),"[4]; good solvent N,N-Dimethylformamide, poor solvent Ethanol",Clear solution
same,Crystal form (XRPD),"[4]; good solvent N,N-Dimethylformamide, poor solvent Ethyl acetate",Clear solution
same,Crystal form (XRPD),"[4]; good solvent N,N-Dimethylformamide, poor solvent Tetrahydrofuran",Clear solution
same,"stability of crystal form in solvent, suspension method","[5]; ethanol, isopropanol, ethyl acetate, isopropyl acetate, methyl tert-butyl ether, tetrahydrofuran, N-methylpyrrolidone, methyl acetate, 2-methyltetrahydrofuran, cyclohexane, n-hexane, toluene, or n-heptane",relatively good stability
same,crystal form when stirred in solvent,"[5]; ethanol, isopropanol, ethyl acetate, isopropyl acetate, methyl tert-butyl ether, tetrahydrofuran, N-methylpyrrolidone, methyl acetate, 2-methyltetrahydrofuran, cyclohexane, n-hexane, toluene, or n-heptane at 25-50° C.",remained stable
same,Crystal form (XRPD),"[5]; suspension in 1,4-Dioxane, 25° C.",Crystal form A
same,Crystal form (XRPD),"[5]; suspension in 1,4-Dioxane, 50° C.",Crystal form E
same,Crystal form (XRPD),"[5]; suspension in Acetone-water 1:1, 25° C.",Clear solution
same,Crystal form (XRPD),"[5]; suspension in Acetone-water 1:1, 50° C.",Clear solution
same,Crystal form (XRPD),"[5]; suspension in Acetonitrile-water 1:1, 25° C.",Clear solution
same,Crystal form (XRPD),"[5]; suspension in Acetonitrile-water 1:1, 50° C.",Clear solution
same,Crystal form (XRPD),"[5]; suspension in Dichloromethane, 25° C.",No solid sample
same,Crystal form (XRPD),"[5]; suspension in Dichloromethane, 50° C.",No solid sample
same,Crystal form (XRPD),"[5]; suspension in Dichloromethane/acetone (v/v, 1:1), 25° C.",Crystal form A
same,Crystal form (XRPD),"[5]; suspension in Dichloromethane/acetone (v/v, 1:1), 50° C.",No solid sample
same,Crystal form (XRPD),"[5]; suspension in Dichloromethane/methanol (v/v, 1:1), 25° C.",Clear solution
same,Crystal form (XRPD),"[5]; suspension in Dichloromethane/methanol (v/v, 1:1), 50° C.",No solid sample
same,Crystal form (XRPD)/85° C.,[5]; suspension in Dioxane,Crystal form A
same,Crystal form (XRPD)/85° C.,[5]; suspension in MIBK,Crystal form A
same,Crystal form (XRPD),"[5]; suspension in Methanol-water 1:1, 25° C.",Crystal form B
same,Crystal form (XRPD),"[5]; suspension in Methanol-water 1:1, 50° C.",Clear solution
same,Crystal form (XRPD),"[5]; suspension in Methyl tert-butyl ether, 25° C.",Crystal form A
same,Crystal form (XRPD),"[5]; suspension in Methyl tert-butyl ether, 50° C.",Crystal form A
same,Crystal form (XRPD),"[5]; suspension in Tetrahydrofuran, 25° C.",Crystal form A
same,Crystal form (XRPD),"[5]; suspension in Tetrahydrofuran, 50° C.",Crystal form A
same,Crystal form (XRPD),"[5]; suspension in Toluene, 25° C.",Crystal form A
same,Crystal form (XRPD),"[5]; suspension in Toluene, 50° C.",Crystal form A
same,Crystal form (XRPD),"[5]; suspension in Water, 25° C.",Crystal form B
same,Crystal form (XRPD),"[5]; suspension in Water, 50° C.",Crystal form B
same,Crystal form (XRPD),"[5]; suspension in n-Heptane, 25° C.",Crystal form A
same,Crystal form (XRPD),"[5]; suspension in n-Heptane, 50° C.",Crystal form A
same,Crystal form (XRPD)/85° C.,[5]; suspension in n-Heptane,Crystal form A
same,crystal form when stirred in solvent,[5]; toluene or n-heptane at 25-85° C.,remained stable
same,Concentration,"[6]; 0.01N hydrochloric acid, 15 min",>6
same,Concentration,"[6]; 0.01N hydrochloric acid, 2 h",>6
same,Concentration,"[6]; 0.01N hydrochloric acid, 4 h",>6
same,Concentration,"[6]; 0.01N hydrochloric acid, 24 h",>6
same,Concentration,"[6]; Pure water, 15 min",0.747
same,Concentration,"[6]; Pure water, 2 h",4.930
same,Concentration,"[6]; Pure water, 4 h",4.657
same,Concentration,"[6]; Pure water, 24 h",4.567
same,Concentration,"[6]; pH 1.2, 15 min",>6
same,Concentration,"[6]; pH 1.2, 2 h",>6
same,Concentration,"[6]; pH 1.2, 4 h",>6
same,Concentration,"[6]; pH 1.2, 24 h",>6
same,Concentration,"[6]; pH 4.5, 15 min",>6
same,Concentration,"[6]; pH 4.5, 2 h",0.044
same,Concentration,"[6]; pH 4.5, 4 h",0.046
same,Concentration,"[6]; pH 6.8, 15 min",0.003
same,Concentration,"[6]; pH 6.8, 2 h",0.005
same,Concentration,"[6]; pH 6.8, 4 h",0.005
same,Concentration,"[6]; pH 6.8, 24 h",0.015
